# Tests used:
# 125I-LDL = test: Degradation of exogenously added 125I-LDL (lysosomal inhibition control); assay type: cell-based, rat
# Description: (§1) To determine whether the proteasome mediated Ω-3 fatty acid-induced apoB degradation, rat hepatoma cells were incubated at 37° C. for 4 hr in [^35S]methionine-containing medium supplemented with either BSA or EPA/BSA complexes in the absence or presence of the proteasome inhibitor, lactacystin ([…]; purchased from the laboratory of Dr. E. J. Corey, Harvard University). Samples of cell lysates and conditioned media were subjected to immunoprecipitation analysis with anti-apoB antiserum, followed by SDS-PAGE and fluorography. To determine whether Ω-3 fatty acids targeted apoB to lysosomal degradation, a similar experiment was performed substituting ammonium chloride (40 mM) for lactacystin.
# (§2) More evidence against the involvement of re-uptake in Ω-3 fatty acid-induced degradation of apoB is based on the knowledge that lipoproteins captured by either LDL receptors (Brown, M. S., and Goldstein, J. L. (1986) Science 232(4746), 34-47) or heparan sulfate proteoglycans (Williams, K. J. et al. (1992) J Biol Chem 267(19), 13284-92; and Fuki, I. V. et al. (2000) J Biol Chem 275(33), 25742-50) are directed to lysosomes. Thus, rat primary hepatocytes cells were treated with either OA or DHA in the absence or presence of ammonium chloride, a lysosomal inhibitor. […]
# rat hepatoma cells [1] = test: Cell toxicity by TCA-PTA precipitation analysis; assay type: cell-based; details: 40 mM
# Description: After electrophoresis, the gels were stained, fixed, soaked in Enhance fluor solution, and dried following protocols supplied by the manufacturer. Dried gels were then exposed to X-ray film at −70° C. and signals on the resulting fluorograms were typically quantified by densitometry or phosphorimaging. Using the total radioactivity applied to each lane of the gel and the relative signal intensity of each band in that lane, the radioactivity associated with each apoprotein species was calculated. In some cases, gel bands were excised and the incorporated radioactivity measured directly by scintillation counting. As a control, the incorporation of [^35S]methionine into total cellular and secreted proteins was measured by TCA-PTA precipitation, as described in Wang, H., Chen, X., and Fisher, E. A. (1993) J Clin Invest 91(4), 1380-9.
# as §1, with “To determine whether Ω-3 fatty acids targeted apoB to lysosomal degradation, a similar experiment was performed substituting ammonium chloride (40 mM) for lactacystin.” left out
# rat primary hepatocytes [2] = test: Lysosomal inhibition and DHA-induced degradation of newly synthesized apoB; assay type: cell-based; details: with lysosomal inhibitor
# Description: as §1, §2
# rat hepatoma cells [3] = test: Pulse-chase recovery of [35S]-apoB100 (apoB100 degradation) in rat hepatoma cells; assay type: cell-based; details: co-treatment with DHA, FIG. 13A and 13B
# Description: (§3) FIG. 13 illustrates that either an iron chelator (DFX) or lipid antioxidants block DHA-stimulated apoB degradation and reactive oxygen species (ROS) production. Rat hepatoma cells were plated in culture wells and pre-incubated in media containing either DHA or DHA with one of the indicated compounds. Radiolabeled methionine/cysteine was added to the culture media for 15 minutes, after which time, the culture media were replaced by fresh media identical in composition except that radiolabeled methionine/cysteine were replaced by unlabeled methionone/cysteine. The recovery of labeled apoB100 ([^35S]-apoB100) from the media and cell lysate was determined at the indicated time points (with time 0 being the point when the fresh media were applied to the cells) by immunoprecipitating apoB species with a rabbit polyclonal antibody to rat apoB, resuspending the immunoprecipitates, combining aliquots from cell lysate and media samples from each well, resolving the protein contents of the combined immunoprecipitates by SDS-polyacrylamide gel electrophoresis (SDS-PAGE), and exposing the resultant gels to X-ray film in order to visualize the labeled apoB bands. In panel A are shown representative signals for radiolabeled apoB100 in each of the treatment conditions. […] For each treatment, there were at least 2 wells/treatment for each time point and the entire experiment repeated. The signal intensities of the apoB100 bands were quantified by densitometry and the mean relative recoveries (the % of the 15 minute, or initial, value still remaining at 120 minutes) ±SEM are shown in panel B. Note that the visual impressions observable in panel A are confirmed by the quantitative analysis; i.e., there is a substantial increase in labeled apoB100 recovery with any of the co-treatments. In panel C, the ROS content of the cell lysates at the end of the experiment was measured by the standard TBARS assay (Stocks et al., 1974, Clin Sci Mol Med 47,215-222). Note that compared to control (BSA), DHA induced a large increase in TBARS, as expected because of its high content on unsaturated bonds.
# FIG. 14 illustrates that DHA, but not saturated MA, induces apoB100 degradation in rat hepatoma cells. An experiment similar to the one described in FIG. 13 was performed, with the following changes: A) The immunoprecipitates from cell lysate and media samples were not combined, but separately analyzed. B) In addition to the 15 and 120 minute time points, apoB recovery was determined at 30 minutes. C) In addition to DHA, the effects of the fatty acid myristic (MA) were also tested because it has no unsaturated bonds and should not give rise to ROS.
# FIG. 15 illustrates that AA stimulates apoB100 degradation and increases ROS. […] Note in the upper panel that the combined recovery (from two separate wells/time point) of radiolabeled apoB100 decreased from 15 to 120 minutes, indicating significant apoB100 degradation had occurred in the presence of AA. […] In addition to being a source of ROS, AA can also be converted by cyclooxygenase (COX) to bioactive prostaglandin compounds. We therefore repeated the experiment with AA but with co-treatment by the COX inhibitor aspirin.
# To further explore the underlying mechanisms, rat hepatoma cells or primary hepatocytes were incubated with the Ω-3 fatty acid DHA complexed to BSA, while blocking candidate cellular mediators. […] There was, however, strong evidence against a role for calcium. Chelation of intracellular Ca^++ with BAPTA-AM, pharmacologic blockage of Ca^++ channels, depletion of the ER-calcium pool, and increasing Ca++ influx with an ionophore each had no effect. Because EGTA also chelates Fe^+++, and DHA is subject to Fe^+++-dependent peroxidation, the role of this lipid modification was examined. As shown in FIG. 13A and 13B, Desferroxamine (DFX), a chelator of Fe^+++, the antioxidant vitamin E (Vit E), and the synthetic antioxidant BHT, each inhibited DHA-stimulated apoB100 degradation by ˜60%.
# rat hepatoma cells [4] = test: TBARS assay of ROS in cell lysates of rat hepatoma cells; assay type: cell-based; details: co-treatment with DHA, FIG. 13C
# Description: as §3, with “bonds. […] FIG. 15 illustrates that AA stimulates apoB100 degradation and increases ROS. […] Note in the upper panel that the combined recovery (from two separate wells/time point) of radiolabeled apoB100 decreased from 15 to 120 minutes, indicating significant apoB100 degradation had occurred in the presence of AA. […] In addition to being a source of ROS, AA can also be converted by cyclooxygenase (COX) to bioactive prostaglandin compounds. We therefore repeated the experiment with AA but with co-treatment by the COX inhibitor aspirin.” for “bonds.”
# rat primary hepatocytes [5] = test: Basal apoB100 degradation (pulse-chase recovery) in rat primary hepatocytes; assay type: cell-based; details: FIG. 16A
# rat primary hepatocytes [6] = test: TBARS assay of ROS in rat primary hepatocytes; assay type: cell-based; details: FIG. 16B
Compound,inhibition of the degradation of exogenously added 125I-LDL (125I-LDL; ammonium chloride 40 mM) [%],degradation of 125I-LDL (125I-LDL; rat primary hepatocytes),cell toxicity assessed by TCA-PTA precipitation analysis (rat hepatoma cells [1]),DHA-induced degradation of newly synthesized apoB (rat primary hepatocytes [2]),inhibition of DHA-stimulated apoB100 degradation (rat hepatoma cells [3]) [%],"DHA-increased ROS, TBARS assay, with co-treatment (rat hepatoma cells [4])",basal level of apoB degradation (rat primary hepatocytes [5]),ROS level (TBARS) (rat primary hepatocytes [6])
Cl.N [ammonium chloride],> 80,decreased,no evidence of cell toxicity,no decrease,,,,
vitamin E [Vit E],,,,,~60,reduced,essentially reversed,reduced
